Assay results: patent US4126616A, “N-propylnorapomorphine diesters” (Hinshaw; William B., priority 1976, dated 1978)
Structures can show the parent of a compound that is named as a salt. Where two headings read alike, the source gives them in different places.

System: caudate lesioned mouse
Test: caudate lesioned mouse test (anti-parkinson activity)
Format: in vivo
Details: for ED50: caudate lesioned mouse; for responders at 5.2 µmol/kg: dose 0.0052 m. mole/kg; for responders at 13 µmol/kg: dose 0.013 m. mole/kg; for responders at 132 µmol/kg: dose 0.132 m. mole/kg; for Molar Potency Ratio Claimed/Ref. Ester: claimed N-propyl ester vs corresponding N-methyl reference ester
Description: An index of anti-parkinson activity was determined using the caudate lesioned mouse test described by Lotti, Life Sci., 10, 781-789 (1971). The mice having unilateral lesions of the caudate nucleus prepared according to the method of Lotti supra were observed immediately after the surgical procedure for strong postural asymmetries directed to the same side as the lesion. When this asymmetry was not observed, the mice were discarded. Operated mice were allowed at least 14 days to recover prior to drug testing. The lesioned mice were tested with apomorphine using 1.7 mg./kg. of base administered intraperitoneally in a 1% suspension in gum tragacanth. […] Only those mice which twisted or circled toward the lesioned side in all three test periods after the apomorphine injection were retained for further drug testing. The test drugs were all administered in 1% gum tragacanth suspension in a volume of 0.1 ml./10 g. of body weight. Doses were expressed in mg./kg. of free base.
Results of tests in the caudate lesioned mouse test described above which were obtained on the compounds of the invention are given in the table below identified, in each case, by the example numbers above where their preparations are described. Corresponding data for reference apomorphine diesters described in German patent application No. 2,154,162 are given in a side-by-side relationship for a number of the species. The reference compounds, designated Ref. 1, Ref. 1B, Ref. 1C, Ref. 1D, Ref. 1E, Ref. 1F, Ref. 2 and Ref. 2A correspond, respectively, to the compounds of the invention identified by Examples 1, 1B, 1C, 1D, 1E, 1F, 2 and 2A and differ from the latter only in having a methyl group on the apomorphine nitrogen from instead of an n-propyl group as present in the instant compounds.

[1] = Mus musculus, 0.5 h, dose 0.026 m. mole/kg, 1/2 h post-drug, read-out: No. Mice Affected/No. Mice Tested, 1/2 h (converted)
[2] = Mus musculus, 6 h post-drug, read-out: No. Mice Affected/No. Mice Tested, 6 h
[3] = Mus musculus, 24 h post-drug, read-out: No. Mice Affected/No. Mice Tested, 24 h
[4] = Mus musculus, dose 0.026 m. mole/kg, 1 h post-drug, read-out: No. Mice Affected/No. Mice Tested, 1 h (converted)
[5] = Mus musculus, dose 0.026 m. mole/kg, 2 h post-drug, read-out: No. Mice Affected/No. Mice Tested, 2 h (converted)
[6] = Mus musculus, dose 0.026 m. mole/kg, 4 h post-drug, read-out: No. Mice Affected/No. Mice Tested, 4 h (converted)
[7] = Mus musculus, dose 0.026 m. mole/kg, 6 h post-drug, read-out: No. Mice Affected/No. Mice Tested, 6 h (converted)
[8] = Mus musculus, dose 0.026 m. mole/kg, 24 h post-drug, read-out: No. Mice Affected/No. Mice Tested, 24 h
[9] = Mus musculus, dose 0.026 m. mole/kg, total, read-out: No. Mice Affected/No. Mice Tested, Total (converted)
[10] = Mus musculus, 0.5 h, 1/2 h post-drug, read-out: No. Mice Affected/No. Mice Tested, 1/2 h (converted)
[11] = Mus musculus, 1 h post-drug, read-out: No. Mice Affected/No. Mice Tested, 1 h (converted)
[12] = Mus musculus, 2 h post-drug, read-out: No. Mice Affected/No. Mice Tested, 2 h (converted)
[13] = Mus musculus, 4 h post-drug, read-out: No. Mice Affected/No. Mice Tested, 4 h (converted)
[14] = Mus musculus, total, read-out: No. Mice Affected/No. Mice Tested, Total (converted)
[15] = Mus musculus, 6 h post-drug, read-out: No. Mice Affected/No. Mice Tested, 6 h (converted)
[16] = Mus musculus, 24 h post-drug, read-out: No. Mice Affected/No. Mice Tested, 24 h (converted)
[17] = Mus musculus, 0.5 h, read-out: No. Mice Affected/No. Mice Tested, 1/2 h
[18] = Mus musculus, 1 h, read-out: No. Mice Affected/No. Mice Tested, 1 h
[19] = Mus musculus, 4 h, read-out: No. Mice Affected/No. Mice Tested, 4 h
[20] = Mus musculus, 6 h, read-out: No. Mice Affected/No. Mice Tested, 6 h
[21] = Mus musculus, 24 h, read-out: No. Mice Affected/No. Mice Tested, 24 h
[22] = Mus musculus, read-out: No. Mice Affected/No. Mice Tested, Total
[23] = Mus musculus, 2 h, read-out: No. Mice Affected/No. Mice Tested, 2 h

CCCN1CCc2cccc3c2C1Cc1ccc(OC(=O)c2cc(OC)c(OC)c(OC)c2)c(OC(=O)c2cc(OC)c(OC)c(OC)c2)c1-3 (stereo not shown) [Ex. 1L, N-Propylnorapomorphine bis-3,4,5-trimethoxybenzoate hydrochloride]
ED50 (ED50, read-out: ED50): 15 µmol/kg | responders at 5.2 µmol/kg (Mus musculus, 0.5 h, 1/2 h post-drug, read-out: No. Mice Affected/No. Mice Tested, 1/2 h): 0% | responders at 26 µmol/kg [1]: 75% | responders at 5.2 µmol/kg (Mus musculus, 1 h post-drug, read-out: No. Mice Affected/No. Mice Tested, 1 h): 0% | responders at 5.2 µmol/kg (Mus musculus, 2 h post-drug, read-out: No. Mice Affected/No. Mice Tested, 2 h): 0% | responders at 5.2 µmol/kg (Mus musculus, 4 h post-drug, read-out: No. Mice Affected/No. Mice Tested, 4 h): 0% | responders at 5.2 µmol/kg [2]: 0% | responders at 5.2 µmol/kg [3]: 0% | responders at 5.2 µmol/kg (Mus musculus, total, read-out: No. Mice Affected/No. Mice Tested, Total): 0% | responders at 26 µmol/kg [4]: 75% | responders at 26 µmol/kg [5]: 100% | responders at 26 µmol/kg [6]: 100% | responders at 26 µmol/kg [7]: 100% | responders at 26 µmol/kg [8]: 0% | responders at 26 µmol/kg [9]: 100%

CCCN1CCc2cccc3c2C1Cc1ccc(OC(=O)C2CC2)c(OC(=O)C2CC2)c1-3 (stereo not shown) [Ex. 1M, N-Propylnorapomorphine bis-cyclopropanecarboxylate]
ED50 (ED50, read-out: ED50): 13 µmol/kg | responders at 13 µmol/kg [10]: 50% | responders at 26 µmol/kg [1]: 100% | responders at 132 µmol/kg [10]: 100% | responders at 13 µmol/kg [11]: 50% | responders at 13 µmol/kg [12]: 50% | responders at 13 µmol/kg [13]: 25% | responders at 13 µmol/kg [2]: 0% | responders at 13 µmol/kg [3]: 0% | responders at 13 µmol/kg [14]: 50% | responders at 26 µmol/kg [4]: 75% | responders at 26 µmol/kg [5]: 75% | responders at 26 µmol/kg [6]: 75% | responders at 26 µmol/kg [7]: 75% | responders at 26 µmol/kg [8]: 0% | responders at 26 µmol/kg [9]: 100% | responders at 132 µmol/kg [11]: 100% | responders at 132 µmol/kg [12]: 100% | responders at 132 µmol/kg [13]: 100% | responders at 132 µmol/kg [15]: 100% | responders at 132 µmol/kg [16]: 100% | responders at 132 µmol/kg [14]: 100%

CCCN1CCc2cccc3c2C1Cc1ccc(OC(C)=O)c(OC(C)=O)c1-3 (stereo not shown) [Ex. 2, N-propylnorapomorphine diacetate]
responders at 26 µmol/kg [17]: 100% | responders at 52 µmol/kg [17]: 25% | responders at 104 µmol/kg [17]: 50% | responders at 26 µmol/kg [18]: 100% | responders at 52 µmol/kg [18]: 25% | responders at 104 µmol/kg [18]: 75% | responders at 26 µmol/kg [19]: 50% | responders at 52 µmol/kg [19]: 25% | responders at 104 µmol/kg [19]: 25% | responders at 26 µmol/kg [20]: 100% | responders at 52 µmol/kg [20]: 75% | responders at 104 µmol/kg [20]: 50% | responders at 26 µmol/kg [21]: 50% | responders at 52 µmol/kg [21]: 0% | responders at 104 µmol/kg [21]: 50% | responders at 26 µmol/kg [22]: 100% | responders at 52 µmol/kg [22]: 75% | responders at 104 µmol/kg [22]: 75% | Molar Potency Ratio Claimed/Ref. Ester: ≥ 16

CCCCC(=O)Oc1ccc2c(c1OC(=O)CCCC)-c1cccc3c1C(C2)N(CCC)CC3 (stereo not shown) [Ex. 2A, N-propylnorapomorphine dipentanoate hydrochloride]
responders at 26 µmol/kg [1]: 0% | responders at 132 µmol/kg [10]: 50% | responders at 26 µmol/kg [4]: 0% | responders at 26 µmol/kg [5]: 0% | responders at 26 µmol/kg [6]: 0% | responders at 26 µmol/kg [7]: 0% | responders at 26 µmol/kg [8]: 0% | responders at 26 µmol/kg [9]: 0% | responders at 132 µmol/kg [11]: 75% | responders at 132 µmol/kg [12]: 75% | responders at 132 µmol/kg [13]: 75% | responders at 132 µmol/kg [15]: 75% | responders at 132 µmol/kg [16]: 75% | responders at 132 µmol/kg [14]: 75% | Molar Potency Ratio Claimed/Ref. Ester: ≥ 3

CCCCCCCCCCCCCCCC(=O)Oc1ccc2c(c1OC(=O)CCCCCCCCCCCCCCC)-c1cccc3c1C(C2)N(CCC)CC3 (stereo not shown) [Ex. ID, N-Propylnorapomorphine dihexadecanoate]
responders at 52 µmol/kg (Mus musculus, 0.5 h, dose 0.052 m. mole/kg, 1/2 h post-drug, read-out: No. Mice Affected/No. Mice Tested, 1/2 h (converted)): 0% | responders at 132 µmol/kg [10]: 0% | responders at 52 µmol/kg (Mus musculus, dose 0.052 m. mole/kg, 1 h post-drug, read-out: No. Mice Affected/No. Mice Tested, 1 h (converted)): 0% | responders at 52 µmol/kg (Mus musculus, dose 0.052 m. mole/kg, 4 h post-drug, read-out: No. Mice Affected/No. Mice Tested, 4 h (converted)): 25% | responders at 52 µmol/kg (Mus musculus, dose 0.052 m. mole/kg, 6 h post-drug, read-out: No. Mice Affected/No. Mice Tested, 6 h (converted)): 25% | responders at 52 µmol/kg (Mus musculus, dose 0.052 m. mole/kg, 24 h post-drug, read-out: No. Mice Affected/No. Mice Tested, 24 h): 0% | responders at 52 µmol/kg (Mus musculus, dose 0.052 m. mole/kg, total, read-out: No. Mice Affected/No. Mice Tested, Total (converted)): 25% | responders at 132 µmol/kg [11]: 0% | responders at 132 µmol/kg [13]: 100% | responders at 132 µmol/kg [15]: 0% | responders at 132 µmol/kg [16]: 33.3% | responders at 132 µmol/kg [14]: 100% | Molar Potency Ratio Claimed/Ref. Ester: ≥ 8

CCCN1CCc2cccc3c2C1Cc1ccc(O)c(O)c1-3 (stereo not shown) [N-propylnorapomorphine]
ED50 (Mus musculus, po, read-out: ED50, on oral administration, oral): 3.2 µmol/kg

CCC(=O)Oc1ccc2c(c1OC(=O)CC)-c1cccc3c1C(C2)N(C)CC3 (stereo not shown) [Ref. 1, reference compound]
responders at 26 µmol/kg [17]: 0% | responders at 52 µmol/kg [17]: 25% | responders at 104 µmol/kg [17]: 41.7% | responders at 208 µmol/kg [17]: 100% | responders at 26 µmol/kg [18]: 0% | responders at 52 µmol/kg [18]: 25% | responders at 104 µmol/kg [18]: 41.7% | responders at 208 µmol/kg [18]: 100% | responders at 26 µmol/kg [23]: 0% | responders at 52 µmol/kg [23]: 0% | responders at 104 µmol/kg [23]: 0% | responders at 208 µmol/kg [23]: 100% | responders at 26 µmol/kg [19]: 0% | responders at 52 µmol/kg [19]: 0% | responders at 104 µmol/kg [19]: 0% | responders at 208 µmol/kg [19]: 50% | responders at 26 µmol/kg [20]: 0% | responders at 52 µmol/kg [20]: 0% | responders at 104 µmol/kg [20]: 0% | responders at 208 µmol/kg [20]: 0% | responders at 26 µmol/kg [21]: 0% | responders at 208 µmol/kg [21]: 0% | ED50 (Mus musculus, ED50): 98 µmol/kg | responders at 26 µmol/kg [22]: 0% | responders at 52 µmol/kg [22]: 25% | responders at 104 µmol/kg [22]: 41.7% | responders at 208 µmol/kg [22]: 100%

CC(C)C(=O)Oc1ccc2c(c1OC(=O)C(C)C)-c1cccc3c1C(C2)N(C)CC3 (stereo not shown) [Ref. 1B, reference compound]
responders at 208 µmol/kg [17]: 0% | responders at 208 µmol/kg [18]: 0% | responders at 208 µmol/kg [19]: 25% | responders at 208 µmol/kg [20]: 0% | responders at 208 µmol/kg [21]: 0% | responders at 208 µmol/kg [22]: 25%
